Data as given in patent publication US11981658B2, “Substituted aminopyridine compounds as EGFR inhibitors” (YUHAN CORPORATION, priority 2021, dated 2024).
Where two headings read alike, the source gives them in different places.

Columns and labels:
[1] = biological target: EGFR Del19/T790M/C797S (Homo sapiens, UniProt P00533, C797S/DEL746-750/T790M); experiment: Biochemical EGFR kinase inhibition assay (Lance Ultra TR-FRET), triple mutant del19/T790M/C797S
How it was run: (§1)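 Step 1: compound in kinase buffer, 0.003–10 μM. Step 2: kinase reaction 1 h at room temperature. Step 4: TR-FRET read at 615/665 nm; IC50 calculated.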

[2] = biological target: EGFR L858R/C797S (Homo sapiens, UniProt P00533, C797S/L858R); experiment: Biochemical EGFR kinase inhibition assay (Lance Ultra TR-FRET), double mutant L858R/C797S
How it was run: as §1

[3] = biological target: EGFR Del19/C797S (Homo sapiens, UniProt P00533, C797S/DEL746-750); experiment: Biochemical EGFR kinase inhibition assay (Lance Ultra TR-FRET), double mutant del19/C797S
How it was run: as §1

[4] = biological target: EGFR wildtype (WT) (Homo sapiens, UniProt P00533); experiment: Biochemical EGFR kinase inhibition assay (Lance Ultra TR-FRET), wildtype
How it was run: as §1

[5] = biological target: EGFR L858R/T790M/C797S (Homo sapiens, UniProt P00533, C797S/L858R/T790M); experiment: Biochemical EGFR kinase inhibition assay (Lance Ultra TR-FRET), triple mutant L858R/T790M/C797S
How it was run: as §1

[6] = ATP at Km, read-out: IC50 Del19/T790M/C797S (nM), Km ATP
[7] = IC50 Del19/T790M/C797S (nM), 100 μM ATP
[8] = ATP at Km, read-out: IC50 L858R/C797S (nM), Km ATP
[9] = IC50 L858R/C797S (nM), 100 μM ATP
[10] = ATP at Km, read-out: IC50 Del19/C797S (nM), Km ATP
[11] = IC50 Del19/C797S (nM), 100 μM ATP
[12] = ATP at Km, read-out: IC50 WT (nM), Km ATP
[13] = ATP at Km, read-out: IC50 L858R/T790M/C797S (nM), Km ATP
[14] = IC50 L858R/T790M/C797S (nM), 100 μM ATP

Chain of EGFR Del19/C797S (P00533 with tags, fused parts or gaps DEL746-750/C797S): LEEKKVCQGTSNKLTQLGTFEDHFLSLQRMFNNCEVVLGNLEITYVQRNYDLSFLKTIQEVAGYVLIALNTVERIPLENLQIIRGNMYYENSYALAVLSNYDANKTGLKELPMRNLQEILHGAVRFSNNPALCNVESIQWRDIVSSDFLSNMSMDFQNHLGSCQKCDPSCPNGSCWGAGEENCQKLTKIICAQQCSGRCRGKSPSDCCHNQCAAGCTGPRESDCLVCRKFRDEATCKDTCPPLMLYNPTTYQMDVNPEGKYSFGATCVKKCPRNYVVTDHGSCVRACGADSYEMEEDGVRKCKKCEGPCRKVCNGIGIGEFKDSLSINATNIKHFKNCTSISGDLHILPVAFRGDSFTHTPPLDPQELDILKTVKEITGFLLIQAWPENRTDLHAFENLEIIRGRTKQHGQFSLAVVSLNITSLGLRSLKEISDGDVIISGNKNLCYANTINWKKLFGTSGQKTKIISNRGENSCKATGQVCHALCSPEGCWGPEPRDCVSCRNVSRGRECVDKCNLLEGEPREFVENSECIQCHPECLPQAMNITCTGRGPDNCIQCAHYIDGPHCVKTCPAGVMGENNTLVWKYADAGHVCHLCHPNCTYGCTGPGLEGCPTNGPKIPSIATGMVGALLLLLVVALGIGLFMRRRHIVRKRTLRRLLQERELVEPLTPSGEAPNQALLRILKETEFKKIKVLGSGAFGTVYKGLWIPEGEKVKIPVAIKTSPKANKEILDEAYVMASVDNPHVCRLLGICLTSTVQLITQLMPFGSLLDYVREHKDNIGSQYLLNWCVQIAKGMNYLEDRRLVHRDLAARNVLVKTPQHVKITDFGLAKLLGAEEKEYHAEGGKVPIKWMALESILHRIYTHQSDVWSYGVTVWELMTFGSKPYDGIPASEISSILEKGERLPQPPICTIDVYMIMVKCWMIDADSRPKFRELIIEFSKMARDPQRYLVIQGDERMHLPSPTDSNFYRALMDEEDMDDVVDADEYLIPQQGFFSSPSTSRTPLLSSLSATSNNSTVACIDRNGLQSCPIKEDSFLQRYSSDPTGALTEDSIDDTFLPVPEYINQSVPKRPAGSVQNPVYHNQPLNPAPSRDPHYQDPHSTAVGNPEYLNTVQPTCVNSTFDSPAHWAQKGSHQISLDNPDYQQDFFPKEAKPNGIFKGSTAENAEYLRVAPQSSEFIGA
Chain of EGFR Del19/T790M/C797S (P00533 with tags, fused parts or gaps DEL746-750/T790M/C797S): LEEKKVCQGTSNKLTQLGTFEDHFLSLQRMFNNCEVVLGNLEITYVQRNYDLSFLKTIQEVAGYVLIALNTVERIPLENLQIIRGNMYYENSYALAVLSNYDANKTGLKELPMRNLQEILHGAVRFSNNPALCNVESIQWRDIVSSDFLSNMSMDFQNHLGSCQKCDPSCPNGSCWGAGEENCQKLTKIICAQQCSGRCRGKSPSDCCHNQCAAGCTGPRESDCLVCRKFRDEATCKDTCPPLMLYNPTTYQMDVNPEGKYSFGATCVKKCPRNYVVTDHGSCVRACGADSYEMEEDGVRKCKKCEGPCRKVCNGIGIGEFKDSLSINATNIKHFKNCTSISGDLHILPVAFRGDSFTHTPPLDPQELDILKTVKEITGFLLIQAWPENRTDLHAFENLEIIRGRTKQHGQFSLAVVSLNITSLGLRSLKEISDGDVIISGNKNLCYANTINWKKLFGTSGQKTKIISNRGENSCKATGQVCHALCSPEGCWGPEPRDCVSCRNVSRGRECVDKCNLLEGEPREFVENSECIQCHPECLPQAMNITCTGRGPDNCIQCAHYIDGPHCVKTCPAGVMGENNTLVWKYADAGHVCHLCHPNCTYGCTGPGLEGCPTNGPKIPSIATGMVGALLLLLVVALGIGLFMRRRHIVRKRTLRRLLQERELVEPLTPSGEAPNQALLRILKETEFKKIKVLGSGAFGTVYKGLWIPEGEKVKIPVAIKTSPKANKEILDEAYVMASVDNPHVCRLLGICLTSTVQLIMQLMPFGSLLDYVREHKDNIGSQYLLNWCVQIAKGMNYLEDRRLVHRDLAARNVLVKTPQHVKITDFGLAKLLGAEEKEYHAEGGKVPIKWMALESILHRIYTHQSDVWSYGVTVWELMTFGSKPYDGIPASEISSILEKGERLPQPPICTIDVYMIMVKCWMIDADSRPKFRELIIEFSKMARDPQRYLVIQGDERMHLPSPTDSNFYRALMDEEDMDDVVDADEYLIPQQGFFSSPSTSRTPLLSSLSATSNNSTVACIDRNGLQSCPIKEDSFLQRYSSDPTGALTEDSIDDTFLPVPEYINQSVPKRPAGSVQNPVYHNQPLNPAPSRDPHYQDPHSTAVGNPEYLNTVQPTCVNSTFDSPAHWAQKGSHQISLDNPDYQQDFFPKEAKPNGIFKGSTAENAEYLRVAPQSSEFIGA
Chain of EGFR wildtype (WT) (P00533 25-1210): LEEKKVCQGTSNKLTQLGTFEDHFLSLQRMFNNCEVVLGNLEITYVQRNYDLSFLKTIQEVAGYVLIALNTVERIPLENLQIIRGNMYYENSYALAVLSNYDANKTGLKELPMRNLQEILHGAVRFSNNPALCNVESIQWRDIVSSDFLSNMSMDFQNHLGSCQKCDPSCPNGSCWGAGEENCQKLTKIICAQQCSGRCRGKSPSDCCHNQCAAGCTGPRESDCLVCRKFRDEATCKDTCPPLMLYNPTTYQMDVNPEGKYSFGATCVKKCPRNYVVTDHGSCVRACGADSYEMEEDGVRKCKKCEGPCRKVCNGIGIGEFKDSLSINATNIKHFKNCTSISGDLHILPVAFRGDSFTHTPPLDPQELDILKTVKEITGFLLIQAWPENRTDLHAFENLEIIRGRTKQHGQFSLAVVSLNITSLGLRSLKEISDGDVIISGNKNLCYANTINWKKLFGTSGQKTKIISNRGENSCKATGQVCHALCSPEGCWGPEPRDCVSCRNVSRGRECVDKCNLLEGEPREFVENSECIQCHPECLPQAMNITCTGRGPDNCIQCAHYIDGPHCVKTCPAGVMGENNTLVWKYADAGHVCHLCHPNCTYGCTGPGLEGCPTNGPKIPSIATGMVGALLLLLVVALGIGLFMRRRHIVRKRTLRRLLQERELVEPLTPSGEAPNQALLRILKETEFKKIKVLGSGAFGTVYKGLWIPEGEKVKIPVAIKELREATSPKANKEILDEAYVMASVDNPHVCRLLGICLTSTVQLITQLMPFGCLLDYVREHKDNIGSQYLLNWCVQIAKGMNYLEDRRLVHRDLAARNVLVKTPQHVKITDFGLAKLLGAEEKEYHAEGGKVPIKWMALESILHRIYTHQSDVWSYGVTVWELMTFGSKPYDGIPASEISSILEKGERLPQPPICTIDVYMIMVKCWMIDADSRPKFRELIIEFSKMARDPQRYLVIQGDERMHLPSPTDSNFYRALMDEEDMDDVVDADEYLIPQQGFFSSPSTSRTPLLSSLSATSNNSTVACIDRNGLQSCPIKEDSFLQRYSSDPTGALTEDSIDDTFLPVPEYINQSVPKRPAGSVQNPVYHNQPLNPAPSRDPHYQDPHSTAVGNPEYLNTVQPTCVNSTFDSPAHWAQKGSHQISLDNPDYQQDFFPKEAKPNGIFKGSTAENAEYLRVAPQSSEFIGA
Chain of EGFR L858R/T790M/C797S (P00533 25-1210 T790M/C797S/L858R): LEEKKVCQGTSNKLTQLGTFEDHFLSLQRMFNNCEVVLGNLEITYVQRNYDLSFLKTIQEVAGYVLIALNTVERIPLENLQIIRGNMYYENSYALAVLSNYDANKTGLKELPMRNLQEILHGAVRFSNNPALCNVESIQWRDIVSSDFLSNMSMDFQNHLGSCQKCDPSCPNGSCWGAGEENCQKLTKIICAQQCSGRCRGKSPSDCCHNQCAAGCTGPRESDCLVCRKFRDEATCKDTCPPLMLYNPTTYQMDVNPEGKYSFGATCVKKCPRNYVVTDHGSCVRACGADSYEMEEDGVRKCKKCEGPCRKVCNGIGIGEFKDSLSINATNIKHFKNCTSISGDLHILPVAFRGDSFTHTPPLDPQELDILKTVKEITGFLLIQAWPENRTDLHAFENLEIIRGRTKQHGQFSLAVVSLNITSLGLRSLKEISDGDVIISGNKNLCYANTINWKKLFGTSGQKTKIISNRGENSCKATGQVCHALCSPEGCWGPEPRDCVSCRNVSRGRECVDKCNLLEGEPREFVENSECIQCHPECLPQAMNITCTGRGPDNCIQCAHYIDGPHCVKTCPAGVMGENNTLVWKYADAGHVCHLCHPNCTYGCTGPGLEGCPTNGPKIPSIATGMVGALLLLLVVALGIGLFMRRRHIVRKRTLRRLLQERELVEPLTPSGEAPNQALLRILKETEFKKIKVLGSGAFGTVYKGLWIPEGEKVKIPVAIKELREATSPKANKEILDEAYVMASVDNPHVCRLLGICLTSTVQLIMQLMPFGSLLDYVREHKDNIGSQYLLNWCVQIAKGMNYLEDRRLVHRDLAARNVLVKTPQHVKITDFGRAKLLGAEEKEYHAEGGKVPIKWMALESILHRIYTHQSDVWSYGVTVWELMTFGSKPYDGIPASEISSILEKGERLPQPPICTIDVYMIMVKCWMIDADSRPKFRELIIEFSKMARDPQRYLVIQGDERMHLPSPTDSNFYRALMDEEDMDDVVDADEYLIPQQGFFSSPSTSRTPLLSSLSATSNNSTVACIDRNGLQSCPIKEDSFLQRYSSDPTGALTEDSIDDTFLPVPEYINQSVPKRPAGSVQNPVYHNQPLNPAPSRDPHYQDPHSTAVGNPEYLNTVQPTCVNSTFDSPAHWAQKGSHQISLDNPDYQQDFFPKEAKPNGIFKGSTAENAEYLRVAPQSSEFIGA

SMILES	IC50 [1, 6] [nM]	IC50 [1, 7] [nM]	IC50 [2, 8] [nM]	IC50 [2, 9] [nM]	IC50 [3, 10] [nM]	IC50 [3, 11] [nM]	IC50 [4, 12] [nM]	IC50 ([4]; IC50 WT (nM), 100 μM ATP) [nM]	IC50 [5, 13] [nM]	IC50 [5, 14] [nM]
CC1(CO)CCN(c2cc(Nc3ccnc(-c4cnn(S(=O)(=O)C5CC5)c4)n3)ncc2C#Cc2cccc(C(=O)N3CCOCC3)n2)CC1 [Example 265, (6-((6-((2-(1-(Cyclopropylsulfonyl)-1H-pyrazol-4-yl)pyrimidin-4-yl)amino)-4-(4-(hydroxymethyl)-4-methylpiperidin-1-yl)pyridin-3-yl)ethynyl)pyridin-2-yl)(morpholino)methanone]	0.8	0.9	0.9	9.1	0.8	1.1	7.6	6520	0.3	0.8
CC1(CO)CCN(c2cc(Nc3ccnc(-c4cnn(S(=O)(=O)C5CC5)c4)n3)ncc2C#CC2CC(C(C)(C)O)C2)CC1 (stereo not shown) [Example 266, 2-(3-((6-((2-(1-(Cyclopropylsulfonyl)-1H-pyrazol-4-yl)pyrimidin-4-yl)amino)-4-(4-(hydroxymethyl)-4-methylpiperidin-1-yl)pyridin-3-yl)ethynyl)cyclobutyl)propan-2-ol]	1	0.8	0.9	5.4	1.1	2.1	7.2	1230	0.4	0.4
CC1(CO)CCN(c2cc(Nc3ccnc(-c4cnn(CC(F)F)c4)n3)ncc2C#Cc2cnn(C(F)(F)F)c2)CC1 [Example 267, (1-(2-((2-(1-(2,2-Difluoroethyl)-1H-pyrazol-4-yl)pyrimidin-4-yl)amino)-5-((1-(trifluoromethyl)-1H-pyrazol-4-yl)ethynyl)pyridin-4-yl)-4-methylpiperidin-4-yl)methanol]	1.6	1.9	4.1	130	24.2	12.4	252	> 10000	0.8	3.1
CC1(CO)CCN(c2cc(Nc3ccnc(-c4cnn(S(C)(=O)=O)c4)n3)ncc2C#Cc2cnn(C(F)(F)F)c2)CC1 [Example 268, (4-Methyl-1-(2-((2-(1-(methylsulfonyl)-1H-pyrazol-4-yl)pyrimidin-4-yl)amino)-5-((1-(trifluoromethyl)-1H-pyrazol-4-yl)ethynyl)pyridin-4-yl)piperidin-4-yl)methanol]	2.4	6.2	41.8	116	26.6	59.6	105	> 10000	1	2.9
CC1(CO)CCN(c2cc(Nc3ccnc(-c4ccc(F)nc4)n3)ncc2C#Cc2cnn(C(F)(F)F)c2)CC1 [Example 269, (1-(2-((2-(6-Fluoropyridin-3-yl)pyrimidin-4-yl)amino)-5-((1-(trifluoromethyl)-1H-pyrazol-4-yl)ethynyl)pyridin-4-yl)-4-methylpiperidin-4-yl)methanol]	–	129	–	1350	–	1950	> 10000	> 10000	–	160
Cn1cc(C#Cc2cnc(Nc3ccnc(Nc4ccccc4S(C)(=O)=O)n3)cc2N2CCC(C)(CO)CC2)cn1 [Example 270, (4-Methyl-1-(5-((1-methyl-1H-pyrazol-4-yl)ethynyl)-2-((2-((2-(methylsulfonyl)phenyl)amino)pyrimidin-4-yl)amino)pyridin-4-yl)piperidin-4-yl)methanol]	0.7	1.2	72.8	2800	27.9	28	111	> 10000	1.6	4.8
CC1(CO)CCN(c2cc(Nc3ccnc(Nc4ccccc4S(C)(=O)=O)n3)ncc2C#Cc2cnn(C(F)F)c2)CC1 [Example 271, (1-(5-((1-(Difluoromethyl)-1H-pyrazol-4-yl)ethynyl)-2-((2-((2-(methylsulfonyl)phenyl)amino)pyrimidin-4-yl)amino)pyridin-4-yl)-4-methylpiperidin-4-yl)methanol]	1.8	3	439	> 10000	68.5	111	411	> 10000	6.7	9.2
Cc1nn(S(=O)(=O)N(C)C)cc1-c1nccc(Nc2cc(N3CCC(C)(CO)CC3)c(C#Cc3cnn(C(F)(F)F)c3)cn2)n1 [Example 272, 4-(4-((4-(4-(Hydroxymethyl)-4-methylpiperidin-1-yl)-5-((1-(trifluoromethyl)-1H-pyrazol-4-yl)ethynyl)pyridin-2-yl)amino)pyrimidin-2-yl)-N, N,3-trimethyl-1H-pyrazole-1-sulfonamide]	4	7.1	18.9	2120	51.2	81.9	108	> 10000	2.2	3.1
CN(C)S(=O)(=O)n1cc(-c2nccc(Nc3cc(N4CCC(C)(CO)CC4)c(C#Cc4cnn(C(F)(F)F)c4)cn3)n2)cn1 [Example 273, 4-(4-((4-(4-(Hydroxymethyl)-4-methylpiperidin-1-yl)-5-((1-(trifluoromethyl)-1H-pyrazol-4-yl)ethynyl)pyridin-2-yl)amino)pyrimidin-2-yl)-N, N-dimethyl-1H-pyrazole-1-sulfonamide]	5.6	2.9	16.6	198	35.8	97.4	46.1	> 10000	0.3	1.5
CC1(CO)CCN(c2cc(Nc3ccnc(-c4cnn(S(=O)(=O)C5CC5)c4)n3)ncc2C#CCCO)CC1 [Example 274, 4-(6-((2-(1-(Cyclopropylsulfonyl)-1H-pyrazol-4-yl)pyrimidin-4-yl)amino)-4-(4-(hydroxymethyl)-4-methylpiperidin-1-yl)pyridin-3-yl)but-3-yn-1-ol]	0.1	0.2	1	10.8	0.4	0.6	4.4	1890	0.1	0.2
CC1(CO)CCN(c2cc(Nc3ccnc(-c4cnn(S(=O)(=O)C5CC5)c4)n3)ncc2C#CCC(F)(F)F)CC1 [Example 275, (1-(2-((2-(1-(Cyclopropylsulfonyl)-1H-pyrazol-4-yl)pyrimidin-4-yl)amino)-5-(4,4,4-trifluorobut-1-yn-1-yl)pyridin-4-yl)-4-methylpiperidin-4-yl)methanol]	1	1.7	12.3	118	4.5	10.4	62.3	> 10000	0.8	3.6
CC1(CO)CCN(c2cc(Nc3ccnc(-c4cnn(S(=O)(=O)C5CC5)c4)n3)ncc2C#CCCF)CC1 [Example 276, (1-(2-((2-(1-(Cyclopropylsulfonyl)-1H-pyrazol-4-yl)pyrimidin-4-yl)amino)-5-(4-fluorobut-1-yn-1-yl)pyridin-4-yl)-4-methylpiperidin-4-yl)methanol]	0.3	0.7	1.5	16.5	0.8	1.3	7.5	5290	0.1	0.5
C=CC#Cc1cnc(Nc2ccnc(-c3cnn(S(=O)(=O)C4CC4)c3)n2)cc1N1CCC(C)(CO)CC1 [Example 277, (1-(5-(But-3-en-1-yn-1-yl)-2-((2-(1-(cyclopropylsulfonyl)-1H-pyrazol-4-yl)pyrimidin-4-yl)amino)pyridin-4-yl)-4-methylpiperidin-4-yl)methanol]	0.6	0.8	2.5	33.7	1.4	3.3	11.4	> 10000	0.3	1.8
CN(C)Cc1ccc(C#Cc2cnc(Nc3ccnc(-c4cnn(S(=O)(=O)C5CC5)c4)n3)cc2N2CCC(C)(CO)CC2)cn1 [Example 278, (1-(2-((2-(1-(Cyclopropylsulfonyl)-1H-pyrazol-4-yl)pyrimidin-4-yl)amino)-5-((6-((dimethylamino)methyl)pyridin-3-yl)ethynyl)pyridin-4-yl)-4-methylpiperidin-4-yl)methanol]	0.3	0.6	0.5	0.5	0.2	0.6	0.7	108	0.1	0.3
